Reference: patent publication US4550186A, “Binuclear copper (II) carboxylates formed from amine-carboxyboranes” (Duke University, priority 1983, dated 1985)

What was measured:
[1] = system: ribonucleic acid synthesis of Ehrlich ascites cells; assay: In vivo uridine incorporation into ribonucleic acid; design: species or system mouse
Experimental: (§1) CF1 male mice (~30 g) were implanted with 2×10^6 Ehrlich ascites tumor cells, intraperitoneally on Day 0. Compound I was suspended by homogenation in 0.05% polysorbate.80-water and administered intraperitoneally at 10 and 20 mg/kg for 9 days to determine its effectiveness for inhibition of tumor growth. Mice were sacrificed on Day 10, and the ascites fluid was collected from the peritoneal cavity. The volume and ascrit (packed cell volume) were determined for each animal and the percent inhibition of tumor growth was calculated. For the metabolic studies, mice were treated on Days 8 and 9 with 10 mg/kg of Compound I, intraperitoneally. The animal was sacrificed on Day 10 and the ascites fluid harvested. […]
For in vivo studies, incorporation of thymidine into deoxyribonucleic acid was determined by the method of Chae et al [Proc. Am. […] The deoxyribonucleic acid was isolated and the tritium content was determined in a toluene based scintillation fluid. The deoxyribonucleic acid concentration was determined by the diphenylamine reaction using calf thymus deoxyribonucleic acid as a standard. Uridine incorporation into ribonucleic acid was determined using 10 μCi of 5,6-^3 H-uridine (22.4 Ci/mmol). […] Leucine incorporation into protein was determined by the method of Sartorelli [Biochem. Biophys. […] Protein content was determined by the Lowry procedure using bovine serum albumin as a standard.

[2] = target: T1, carbamyl phosphate synthetase (Mus musculus, UniProt B2RQC6); assay: In vitro carbamyl phosphate synthetase activity; type: biochemical; settings: 0.25 to 1.0 mM
T1 construct: CPSase II domain of CAD; ornithine transcarbamylase used as coupling enzyme
T1 sequence (B2RQC6 2-2225): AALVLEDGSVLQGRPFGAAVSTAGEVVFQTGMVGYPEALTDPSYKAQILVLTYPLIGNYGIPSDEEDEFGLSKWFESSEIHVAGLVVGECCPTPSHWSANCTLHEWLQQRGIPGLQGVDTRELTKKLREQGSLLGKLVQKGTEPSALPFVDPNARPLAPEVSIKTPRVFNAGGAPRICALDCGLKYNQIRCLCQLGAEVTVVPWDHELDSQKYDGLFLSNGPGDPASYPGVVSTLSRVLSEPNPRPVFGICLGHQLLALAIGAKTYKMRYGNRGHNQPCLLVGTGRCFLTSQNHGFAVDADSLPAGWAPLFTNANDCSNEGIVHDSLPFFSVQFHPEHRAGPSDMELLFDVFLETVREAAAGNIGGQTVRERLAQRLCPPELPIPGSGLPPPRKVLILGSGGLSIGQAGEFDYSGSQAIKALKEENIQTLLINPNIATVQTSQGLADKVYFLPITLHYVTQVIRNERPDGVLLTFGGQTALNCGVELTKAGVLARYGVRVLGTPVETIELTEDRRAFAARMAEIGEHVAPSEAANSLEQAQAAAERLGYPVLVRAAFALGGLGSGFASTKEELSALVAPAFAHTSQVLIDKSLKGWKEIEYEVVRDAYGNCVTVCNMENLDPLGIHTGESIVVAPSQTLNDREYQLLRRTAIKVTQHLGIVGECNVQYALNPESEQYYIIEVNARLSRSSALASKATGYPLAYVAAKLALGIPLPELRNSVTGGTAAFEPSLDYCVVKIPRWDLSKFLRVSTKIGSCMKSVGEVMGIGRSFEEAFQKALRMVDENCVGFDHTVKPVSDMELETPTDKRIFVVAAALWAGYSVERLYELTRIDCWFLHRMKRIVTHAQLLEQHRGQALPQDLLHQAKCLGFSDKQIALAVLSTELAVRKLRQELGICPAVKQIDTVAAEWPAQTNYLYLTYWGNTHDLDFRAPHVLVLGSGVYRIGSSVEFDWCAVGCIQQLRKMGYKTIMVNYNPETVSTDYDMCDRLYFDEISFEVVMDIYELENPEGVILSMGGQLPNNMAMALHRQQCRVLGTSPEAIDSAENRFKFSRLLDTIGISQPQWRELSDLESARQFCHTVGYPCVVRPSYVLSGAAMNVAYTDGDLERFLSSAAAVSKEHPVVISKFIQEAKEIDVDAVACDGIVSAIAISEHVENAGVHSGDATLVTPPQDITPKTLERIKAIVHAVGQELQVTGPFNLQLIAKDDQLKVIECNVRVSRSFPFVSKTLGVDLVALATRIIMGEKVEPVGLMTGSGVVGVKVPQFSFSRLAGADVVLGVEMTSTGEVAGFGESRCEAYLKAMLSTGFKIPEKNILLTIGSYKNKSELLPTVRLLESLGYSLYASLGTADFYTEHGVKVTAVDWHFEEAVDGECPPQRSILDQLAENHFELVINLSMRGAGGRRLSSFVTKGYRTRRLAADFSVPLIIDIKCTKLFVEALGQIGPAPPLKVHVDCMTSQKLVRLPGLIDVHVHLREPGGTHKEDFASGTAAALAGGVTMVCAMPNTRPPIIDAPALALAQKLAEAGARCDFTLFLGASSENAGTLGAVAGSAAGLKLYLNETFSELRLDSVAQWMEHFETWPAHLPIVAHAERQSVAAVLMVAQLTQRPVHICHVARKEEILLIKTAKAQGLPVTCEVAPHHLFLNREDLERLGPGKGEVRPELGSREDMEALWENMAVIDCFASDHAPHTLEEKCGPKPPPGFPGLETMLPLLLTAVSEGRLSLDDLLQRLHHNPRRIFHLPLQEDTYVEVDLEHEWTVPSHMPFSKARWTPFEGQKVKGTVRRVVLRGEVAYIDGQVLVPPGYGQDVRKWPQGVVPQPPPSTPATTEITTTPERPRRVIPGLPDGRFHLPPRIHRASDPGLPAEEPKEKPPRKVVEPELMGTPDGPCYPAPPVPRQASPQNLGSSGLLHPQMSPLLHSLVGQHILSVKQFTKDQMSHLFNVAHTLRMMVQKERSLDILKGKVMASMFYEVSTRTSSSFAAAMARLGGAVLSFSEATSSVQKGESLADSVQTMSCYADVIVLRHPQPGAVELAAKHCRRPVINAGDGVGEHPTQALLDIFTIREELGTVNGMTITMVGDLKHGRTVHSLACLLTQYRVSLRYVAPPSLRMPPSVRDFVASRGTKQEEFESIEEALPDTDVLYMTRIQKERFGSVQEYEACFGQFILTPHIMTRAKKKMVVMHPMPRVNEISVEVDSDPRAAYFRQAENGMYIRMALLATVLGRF
Experimental: as §1, with “intraperitoneally.” for “intraperitoneally. The animal was sacrificed on Day 10 and the ascites fluid harvested.”
(§2) Carbamyl phosphate synthetase activity was determined using the reaction medium of Kalman et al [Am. […] Citrulline formed from ornithine was measured at 490 nm by the method of Archibald [J. Biol. Chem., 156, 121 (1944)]. […] The ^14 CO2 generated in 15 min was trapped in 1M KOH and counted. Thymidylate synthetase activity was determined using a post-mitochondrial supernatant (9000 g×10 min) and 5 μCi of 5-^3 H-deoxyuridine monophosphate (14 Ci/mmol) according to the method of Kampf et al [ J. Med. Chem., 19, 903 (1976)]. ^14 C-Formate incorporation into purines was determined by the method of Spassova et al [Biochem. Pharmacol., 25, 923 (1976)] using 0.5 μCi of ^14 C-formic acid (52.0 mCi/mmol). […] The Rf value for xanthine monophosphate was scraped and counted. […]

[3] = target: T1, carbamyl phosphate synthetase; assay: In vivo carbamyl phosphate synthetase activity
Experimental: as §1, with “intraperitoneally.” for “intraperitoneally. The animal was sacrificed on Day 10 and the ascites fluid harvested.”
as §2

[4] = 10 mg/kg/day I.P. on Days 8 and 9

{Cu[(CH3)3 N.BH2 CO2 ]2.(CH3)3 N.BH2 COOH} [Compound I]
3H-Uridine incorporation into ribonucleic acid [1, 4]: 116 ± 10 % Control | uridine incorporation into ribonucleic acid ([1]; 10 day Ehrlich ascites cells): unaffected | carbamyl phosphate synthetase inhibition [2]: not inhibited | Carbamyl phosphate synthetase activity reduced [3]: 23% | Carbamyl phosphate synthetase activity [3, 4]: 77 ± 8 % Control
